Test results from US20230139445A1, “BACTERIAL CELLS WITH IMPROVED TOLERANCE TO DIACIDS” (priority 2016, published 2023).
Like-named read-outs stand apart in the source and are kept apart here.

Key:
[1] = system: Escherichia coli K-12 MG1655 and evolved isolates; type: cell-based; settings: 55 g/L malic acid
Outline: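 Wild-type MG1655 and evolved isolates, precultured overnight in M9 + 1% glucose at 37 °C, were diluted into M9 + 1% glucose. Growth at 37 °C, 225 rpm, scanned every 15 min; pixel values calibrated to OD600. Diacids tested as sodium salts or neutralized to pH 7.0.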

[2] = system: Escherichia coli K-12 MG1655; assay: Growth of K-12 MG1655 in varying concentrations of fumaric, itaconic, malic and succinic acid, Growth Profiler; type: cell-based
Procedure: Five colonies from wild-type K-12 MG1655 and 10 individual colonies deriving from each population were inoculated into 300 μL M9+1% glucose in 96 well deepwell plates and incubated in a 300 rpm plate shaker at 37° C. The next day, cells were diluted 10× in M9+1% glucose and 30 μL was transferred into clear-bottomed 96 well half-deepwell plates (with rectangular wells) containing M9+1% glucose and M9+1% glucose+52.78 g/L glutaric acid or 55.56 g/L adipic acid, such that the final concentration of glutaric acid or adipic acid was 47.5 g/L or 50 g/L, respectively. In addition, cryogenic glycerol stocks of the overnight culture were saved in a 96 well plate format. Half deepwell plates were incubated at 37° C. with 225 rpm shaking in a Growth Profiler (Enzyscreen), with optical scans of the plates taken at 15 minute intervals. Green pixel values integrated over a 1 mm diameter circular area in each well were converted to OD600 values using a previously determined calibration between OD600 and green pixel values.
Additionally, each evolved isolate was tested for cross-tolerance toward other dicarboxylic acids of interest. […] All diacids tested were either the neutral sodium salts, or the free diacid was neutralized with sodium hydroxide to pH 7.0 for testing.

O=C(O)CC(O)C(=O)O (centres unmarked) [malic acid]
growth rate μ (mean) ([1]; strain ADIP1-1): 0.333 h⁻¹ | lag time tlag (mean) ([1]; strain ADIP1-1): 12.8 h | growth rate μ (mean) ([1]; strain ADIP1-9): 0.336 h⁻¹ | lag time tlag (mean) ([1]; strain ADIP1-9): 10.7 h | growth rate μ (mean) ([1]; strain ADIP2-5): 0.338 h⁻¹ | lag time tlag (mean) ([1]; strain ADIP2-5): 17.9 h | growth rate μ (mean) ([1]; strain ADIP2-6): 0.348 h⁻¹ | lag time tlag (mean) ([1]; strain ADIP2-6): 16.8 h | growth rate μ (mean) ([1]; strain ADIP2-10): 0.347 h⁻¹ | lag time tlag (mean) ([1]; strain ADIP2-10): 16.8 h | growth rate μ (mean) ([1]; strain ADIP3-2): 0.318 h⁻¹ | lag time tlag (mean) ([1]; strain ADIP3-2): 10.7 h | growth rate μ (mean) ([1]; strain ADIP3-4): 0.347 h⁻¹ | lag time tlag (mean) ([1]; strain ADIP3-4): 9.9 h | growth rate μ (mean) ([1]; strain ADIP3-8): 0.329 h⁻¹ | lag time tlag (mean) ([1]; strain ADIP3-8): 11.4 h | growth rate μ (mean) ([1]; strain ADIP4-1): 0.275 h⁻¹ | lag time tlag (mean) ([1]; strain ADIP4-1): 12.1 h | growth rate μ (mean) ([1]; strain ADIP4-8): 0.238 h⁻¹ | lag time tlag (mean) ([1]; strain ADIP4-8): 13.4 h | growth rate μ (mean) ([1]; strain ADIP5-2): 0.299 h⁻¹ | lag time tlag (mean) ([1]; strain ADIP5-2): 10.1 h | growth rate μ (mean) ([1]; strain ADIP5-6): 0.404 h⁻¹ | lag time tlag (mean) ([1]; strain ADIP5-6): 10.2 h | growth rate μ (mean) ([1]; strain ADIP6-3): 0.295 h⁻¹ | lag time tlag (mean) ([1]; strain ADIP6-3): 11.6 h | growth rate μ (mean) ([1]; strain ADIP6-9): 0.250 h⁻¹ | lag time tlag (mean) ([1]; strain ADIP6-9): 12.7 h | growth rate μ (mean) ([1]; strain ADIP6-10): 0.323 h⁻¹ | lag time tlag (mean) ([1]; strain ADIP6-10): 10.0 h | growth rate μ (mean) ([1]; strain ADIP7-2): 0.329 h⁻¹ | lag time tlag (mean) ([1]; strain ADIP7-2): 10.3 h | growth rate μ (mean) ([1]; strain ADIP7-5): 0.326 h⁻¹ | lag time tlag (mean) ([1]; strain ADIP7-5): 10.2 h | growth rate μ (mean) ([1]; strain ADIP8-3): 0.194 h⁻¹ | lag time tlag (mean) ([1]; strain ADIP8-3): 14.4 h | growth rate μ (mean) ([1]; strain ADIP8-7): 0.202 h⁻¹ | lag time tlag (mean) ([1]; strain ADIP8-7): 14.9 h | growth rate μ (mean) ([1]; strain ADIP8-10): 0.202 h⁻¹ | lag time tlag (mean) ([1]; strain ADIP8-10): 14.2 h | growth rate μ (mean) ([1]; strain GLUT1-3): 0.294 h⁻¹ | lag time tlag (mean) ([1]; strain GLUT1-3): 13.5 h | growth rate μ (mean) ([1]; strain GLUT1-9): 0.259 h⁻¹ | lag time tlag (mean) ([1]; strain GLUT1-9): 15.3 h | growth rate μ (mean) ([1]; strain GLUT1-10): 0.286 h⁻¹ | lag time tlag (mean) ([1]; strain GLUT1-10): 19.2 h | growth rate μ (mean) ([1]; strain GLUT2-1): 0.273 h⁻¹ | lag time tlag (mean) ([1]; strain GLUT2-1): 13.7 h | growth rate μ (mean) ([1]; strain GLUT2-9): 0.270 h⁻¹ | lag time tlag (mean) ([1]; strain GLUT2-9): 12.5 h | growth rate μ (mean) ([1]; strain GLUT2-10): 0.282 h⁻¹ | lag time tlag (mean) ([1]; strain GLUT2-10): 12.2 h | growth rate μ (mean) ([1]; strain GLUT3-5): 0.257 h⁻¹ | lag time tlag (mean) ([1]; strain GLUT3-5): 15.4 h | growth rate μ (mean) ([1]; strain GLUT3-7): 0.234 h⁻¹ | lag time tlag (mean) ([1]; strain GLUT3-7): 15.5 h | growth rate μ (mean) ([1]; strain GLUT3-9): 0.252 h⁻¹ | lag time tlag (mean) ([1]; strain GLUT3-9): 20.5 h | growth rate μ (mean) ([1]; strain GLUT4-1): 0.264 h⁻¹ | lag time tlag (mean) ([1]; strain GLUT4-1): 15.9 h | growth rate μ (mean) ([1]; strain GLUT4-4): 0.264 h⁻¹ | lag time tlag (mean) ([1]; strain GLUT4-4): 16.5 h | growth rate μ (mean) ([1]; strain GLUT4-10): 0.250 h⁻¹ | lag time tlag (mean) ([1]; strain GLUT4-10): 15.6 h | growth rate μ (mean) ([1]; strain GLUT5-4): 0.272 h⁻¹ | lag time tlag (mean) ([1]; strain GLUT5-4): 15.3 h | growth rate μ (mean) ([1]; strain GLUT5-5): 0.275 h⁻¹ | lag time tlag (mean) ([1]; strain GLUT5-5): 16.6 h | growth rate μ (mean) ([1]; strain GLUT5-9): 0.246 h⁻¹ | lag time tlag (mean) ([1]; strain GLUT5-9): 16.4 h | growth rate μ (mean) ([1]; strain GLUT6-4): 0.251 h⁻¹ | lag time tlag (mean) ([1]; strain GLUT6-4): 14.5 h | growth rate μ (mean) ([1]; strain GLUT6-5): 0.241 h⁻¹ | lag time tlag (mean) ([1]; strain GLUT6-5): 13.8 h | growth rate μ (mean) ([1]; strain GLUT6-10): 0.245 h⁻¹ | lag time tlag (mean) ([1]; strain GLUT6-10): 14.8 h | growth rate μ (mean) ([1]; strain GLUT7-2): 0.275 h⁻¹ | lag time tlag (mean) ([1]; strain GLUT7-2): 16.1 h | growth rate μ (mean) ([1]; strain GLUT7-6): 0.247 h⁻¹ | lag time tlag (mean) ([1]; strain GLUT7-6): 21.9 h | growth rate μ (mean) ([1]; strain GLUT7-7): 0.185 h⁻¹ | lag time tlag (mean) ([1]; strain GLUT7-7): 19.1 h | growth rate μ (mean) ([1]; strain GLUT8-5): 0.180 h⁻¹ | lag time tlag (mean) ([1]; strain GLUT8-5): 15.8 h | growth rate μ (mean) ([1]; strain GLUT8-6): 0.208 h⁻¹ | lag time tlag (mean) ([1]; strain GLUT8-6): 32.7 h | growth rate μ (mean) ([1]; strain GLUT8-9): 0.192 h⁻¹ | lag time tlag (mean) ([1]; strain GLUT8-9): 47.7 h | growth rate μ (mean) ([1]; strain MG1655 (Table 26)): 0.235 h⁻¹ | lag time tlag (mean) ([1]; strain MG1655 (Table 26)): 17.1 h | growth rate μ (mean) ([1]; strain MG1655 (Table 27)): 0.222 h⁻¹ | lag time tlag (mean) ([1]; strain MG1655 (Table 27)): 16.5 h | μ (mean) ([2]; growth rate of K-12 MG1655, 10 g/L diacid (sodium salt)): 0.686 h^1 | μ (mean) ([2]; growth rate of K-12 MG1655, 20 g/L diacid (sodium salt)): 0.639 h^1 | μ (mean) ([2]; growth rate of K-12 MG1655, 30 g/L diacid (sodium salt)): 0.526 h^1 | μ (mean) ([2]; growth rate of K-12 MG1655, 40 g/L diacid (sodium salt)): 0.410 h^1 | μ (mean) ([2]; growth rate of K-12 MG1655, 50 g/L diacid (sodium salt)): 0.287 h^1 | μ (mean) ([2]; growth rate of K-12 MG1655, 60 g/L diacid (sodium salt)): 0.154 h^1 | tlag (mean) ([2]; lag time of K-12 MG1655, 10 g/L diacid (sodium salt)): 5.9 h | tlag (mean) ([2]; lag time of K-12 MG1655, 20 g/L diacid (sodium salt)): 6.6 h | tlag (mean) ([2]; lag time of K-12 MG1655, 30 g/L diacid (sodium salt)): 8.0 h | tlag (mean) ([2]; lag time of K-12 MG1655, 40 g/L diacid (sodium salt)): 11.1 h | tlag (mean) ([2]; lag time of K-12 MG1655, 50 g/L diacid (sodium salt)): 16.9 h | tlag (mean) ([2]; lag time of K-12 MG1655, 60 g/L diacid (sodium salt)): 28.3 h
